How the values were obtained:
Type in all cases: in vivo
[1] = test system: rat models with Alzheimer's disease; test: Extrapolation escape (EE) test, scopolamine-induced Alzheimer's disease model; conditions: 3 min test; scopolamine 1 mg/kg i.p. 27 days; donepezil 1 mg/kg i.p. 10 days, peptide (LYS) 0.1 mg/kg i.n. 10 days
Protocol: (§1) White random-bred adult male rats weighing 200-240 g were used. Groups of 7 animals per group were formed. 1st group—control, 2nd—pathology, 3rd—comparator drug, 4th-6th—neuropeptides.
(§2) Scopolamine was administered i.p. to the animals in all groups except for the control at a 1 mg/kg dose daily, once a day for 27 days. From the 28th day on, the animals in groups 2 and 3 were administered the comparator drug and the claimed preparation respectively over the course of 10 days. The drugs were administered daily, once a day.
(§3) The tetrapeptides were administered i.n at a 0.1 mg/kg dose. The animals in the pathology group received 0.9% sodium chloride solution i.n. and i.p. as a placebo.
(§4) The OF and EE tests were conducted on the 1st day, PST—on the 2nd day, CPAR—on the 1st and 10th day post treatment with the preparations. […] The antiamnesic action (AA) in the CPAR test was calculated using Butler's formula [K. S. Radionova. […] After that, the animals were removed from the experiment by administering a narcotic, followed by decapitation. The brain was extracted and weighed, and the brain weight coefficient (BWC) was calculated. Immediately after extraction, the brain was frozen in liquid nitrogen and used in subsequent biochemical and histochemical studies. Glucose levels in whole arterial (common carotid artery) and venous (venous cerebral sinus) blood were determined by the glucose oxidase test, the difference in the arterial-venous glucose content was calculated (glucose consumption marker). The levels of average weight molecules—the toxic products of cell biodegradation damaged during the disease (nucleoside derivatives, peptoids, glucuronic acid salts, etc.) in the blood serum (AWM) were calculated [A. N. Kovalevsky. Notes on the screening method of determination average weight molecules/A. N. Kovalevsky, O. Ye. Nifantiev//Lab. Science. […] 35-39].

[2] = test system: rat models with Alzheimer's disease; test: Conditioned passive avoidance reflex (CPAR) test, scopolamine-induced Alzheimer's disease model; conditions: for AA less than in the tetrapeptide (LYS) group: donepezil 1 mg/kg; for number of animals who reached the CPAR learning criterium: % of total trained animals, criterium at least 180 sec in light area
Protocol: as §1, §2, §3, §4

rat models with AD = test: Porsolt swim test (PST), scopolamine-induced Alzheimer's disease model; conditions: AD rats; donepezil 1 mg/kg i.p., tetrapeptide (LYS) 0.1 mg/kg i.n.
Protocol: as §1, §2, §3, §4

COc1cc2c(cc1OC)C(=O)C(CC1CCN(Cc3ccccc3)CC1)C2 (centres unmarked) [donepezil, reference compound]
% of animals succeeded [1]: 100% | Escape time [1]: 18.86 ± 3.57 s | AA less than in the tetrapeptide (LYS) group ([2]; 10th day): 1.9 times | Latent period of entry into the dark area of the CPAR device, In 24 hrs. ([2]; In 24 hrs., scopolamine + donepezil 1 mg/kg or tetrapeptide (LYS) 0.1 mg/kg i.n.): 93.29 ± 26.11 s | Latent period of entry into the dark area of the CPAR device, In 10 days ([2]; In 10 days, scopolamine + donepezil 1 mg/kg or tetrapeptide (LYS) 0.1 mg/kg i.n.): 69.43 ± 11.10^ sec. | Latent period of entry into the dark area of the CPAR device, Initial ([2]; Initial, scopolamine + donepezil 1 mg/kg or tetrapeptide (LYS) 0.1 mg/kg i.n.): 24.00 ± 6.23 s | number of animals who reached the CPAR learning criterium ([2]; first day): 28.6% | AA less than in the tetrapeptide (LYS) group ([2]; first day): 2.9 times | number of animals who reached the CPAR learning criterium ([2]; tenth day): goes down to the level of the pathology group | Latent period of immobilization (rat models with AD): 69.43 ± 12.64 s | Number of immobilization acts (rat models with AD): 9.29 ± 1.66
